These are literature values, as cited in patent publication US20030130231A1, “2:1 Complex of beta- or gamma-cyclodextrin and alpha-tocopherol” (WACKER-CHEMIE GmbH, priority 2002, published 2003).

Each structure is given as a SMILES string. Like-named read-outs stand apart in the source and are kept apart here. Some results are limits rather than exact numbers.

For data set [1] the following is noted: cited from earlier work.
The conditions of data set [2]: cited from earlier work. The source holds these as a separate data set.

For the compound `Cc1c(C)c2c(c(C)c1O)CC[C@@](C)(CCC[C@H](C)CCC[C@H](C)CCCC(C)C)O2` [α-tocopherol], the “can be kept in the original packaging” value is “up to 24 months” in data set [1] (stored at 5° C.) and ≤ 12 months in data set [1] (stored at room temperature). Further, in data set [2], the “solubility in water” value is reported as “insoluble in water”.
